According to article PMC9031298, “Enhanced In Vitro Antiviral Activity of Hydroxychloroquine Ionic Liquids against SARS-CoV-2” (Pharmaceutics, 2022):
“And” between values parts separate entries of the source, which are not always exact repeats. Identical values can stand only once. Counter-ions that a name gives are not always drawn. Like-named read-outs stand apart in the source and are kept apart here.

Key:
[1] = tested on: Vero E6 cells
[2] = cited from earlier work
[3] = Critical micelle concentration by ionic conductivity; type: physicochemical; conditions: 20 °C, water
Method: The critical micelle concentrations of the HCQ-ILs with surfactant-like anions were calculated using ionic conductivity measurements. A Crison Basic 30+ Radiometer Analytical conductivity meter was used to measure the ionic conductivities (μS/cm) of surfactant solutions in a glass cell at 20 °C containing a magnetic stirrer. For this method, a known amount of Milli-Q water was placed in a thermostated glass cell and the surfactant solution of known concentration was progressively added using a micropipette under constant stirring. Each conductivity value was measured at least three times.
The ability to form micelles of the lipophilic HCQ-ILs [DocSO3] (5) and [C12SO4] (8) was studied by ionic conductivity measurements. The inherent ability of these HCQ-ILs to self-aggregate into micelles can render adequate drug delivery properties. […] The critical micelle concentration (cmc) values, calculated by resolving both equations, are given in Table 3, alongside the cmc values for the starting halide salts (Na[DocSO3] and [C12SO4]).

[4] = tested on: SARS-CoV-2; experiment: microbe, parasite or virus in culture; type: cell-based; conditions: for EC50 / EC90: TCID50 assay; for EC50: three experiments, read-out: EC50, inhibition of production of infectious progeny viruses; for EC90: read-out: EC90, inhibition of production of infectious progeny viruses
[5] = tested on: SARS-CoV-2; experiment: microbe, parasite or virus in culture; conditions: Severe acute respiratory syndrome coronavirus 2, Vero C1008, read-out: EC90, inhibition of virus-induced CPE, Vero E6 cells, 100 TCID50, 72 hpi
[6] = Octanol–water partition coefficient (Kow, Log P) by UV–Vis; conditions: logarithm of Kow, ca. 1 mg/mL, triplicate
[7] = tested on: SARS-CoV-2; experiment: microbe, parasite or virus in culture; type: cell-based; conditions: for EC50 / EC90: qRT-PCR; for EC50: four experiments, read-out: EC50, inhibition of vRNA transcription; for EC90: read-out: EC90, inhibition of vRNA transcription; for inhibition of vRNA transcription: at 16.7 μM, 48 hpi
[8] = Cell viability assay (CellTiter-Glo), cytotoxicity; conditions: African green monkey, Vero E6 cells (non-infected), CC50, non-infected Vero E6 cells, mean of three experiments
[9] = tested on: SARS-CoV-2; conditions: for inhibition of CPE: at 10 μM, Vero E6, 72 hpi; for EC50: read-out: EC50, inhibition of virus-induced CPE; for EC90: read-out: EC90, inhibition of virus-induced CPE
[10] = Water solubility by stepwise addition of water until visual dissolution; conditions: double-distilled water, 37 °C; for solubility: water, thermodynamic from solid; for Water Solubility: visual inspection
[11] = tested on: Vero E6 cells; experiment: Cell viability assay (CellTiter-Glo), cytotoxicity; conditions: non-infected Vero E6 cells, 72 h, mean of three experiments
[12] = Severe acute respiratory syndrome coronavirus 2, Vero C1008, Vero E6, 48 hpi
[13] = Vero E6 cells, 100 TCID50, 72 hpi

SMILES: CS(=O)(=O)[O-].[K+] [3a, potassium methanesulfonate]
- CC50 [1]: > 400 µM

SMILES: CCCCCCS(=O)(=O)O [4a]
- CC50 [1]: > 400 µM

SMILES: CCCCC(CC)COC(=O)CC(C(=O)OCC(CC)CCCC)S(=O)(=O)[O-].[Na+] (centres unmarked) [5a]
- Reference cmc (25 °C) [2]: 5.0 × 10^−3 [71] M
- cmc [3]: 1540 µM

SMILES: CC1(C)C2CC[C@@]1(CS(=O)(=O)[O-])C(=O)C2.[Na+] [6a]
- CC50 [1]: 142 µM

SMILES: Cc1ccc(S(=O)(=O)[O-])cc1.[Na+] [7a]
- CC50 [1]: > 400 µM

SMILES: CCCCCCCCCCCCOS(=O)(=O)[O-].[Na+] [8a, reference compound]
- Reference cmc (25 °C) [2]: 8.0 × 10^−3 [72] M
- cmc [3]: 9600 µM

SMILES: O=C([O-])[C@H](O)[C@@H](O)[C@H](O)[C@H](O)CO.[Na+] [9a]
- CC50 [1]: > 400 µM

SMILES: CCN(CCO)CCCC(C)Nc1ccnc2cc(Cl)ccc12 (centres unmarked) [compound 1, hydroxychloroquine sulfate, reference compound]
- EC50 [4, 12]: 21.7 µM
- EC90 [4, 12]: 24.3 µM
- EC90 [5]: 23 µM
- Log P [6]: −2.25
- EC50 [7, 12]: 18.6 µM
- EC90 [7, 12]: 25.1 µM
- inhibition of vRNA transcription [7]: 34.0%
- CC50 at 72 h [8]: 214 µM
- inhibition of CPE [9]: lower than 20%
- EC50 [9, 13]: 16.5 µM

SMILES: CCN(CCO)CCCC(C)Nc1ccnc2cc(Cl)ccc12.CS(=O)(=O)O.CS(=O)(=O)O (centres unmarked) [compound 3, N^4-(7-chloroquinolin-4-yl)-N^1-ethyl-N^1-(2-hydroxyethyl)pentane-1,4-diaminium bis(methanesulfonate)]
- EC50 ([4]; Vero E6, 48 hpi): 21.8 µM
- EC90 ([4]; Vero E6, 48 hpi): 24.4 µM
- solubility [10]: 1800 mg/mL
- Log P [6]: −0.22
- EC50 ([7]; Vero E6, 48 hpi): 17 µM
- EC90 ([7]; Vero E6, 48 hpi): 23.4 µM
- inhibition of vRNA transcription [7]: 48.5%
- CC50 [11]: 219 µM
- inhibition of CPE [9]: 70.5%
- EC50 [9, 13]: 8.1 µM and 8.14 µM
- EC90 [9, 13]: > 25 µM

SMILES: CCCCC(CC)COC(=O)CC(C(=O)OCC(CC)CCCC)S(=O)(=O)O.CCCCC(CC)COC(=O)CC(C(=O)OCC(CC)CCCC)S(=O)(=O)O.CCN(CCO)CCCC(C)Nc1ccnc2cc(Cl)ccc12 (centres unmarked) [compound 5, N^4-(7-chloroquinolin-4-yl)-N^1-ethyl-N^1-(2-hydroxyethyl)pentane-1,4-diaminium bis(1,4-bis((2-ethylhexyl)oxy)-1,4-dioxobutane-2-sulfonate)]
- cmc [3]: 1.79 µM
- Water Solubility [10]: <0.5 mg/mL
- Log P [6]: 1.24
- CC50 [11]: 69.8 µM
- SI (CC50/EC50), CPE inhibition [9]: 7.8
- EC50 [9]: 8.9 µM
- EC90 [9]: 20.9 µM

SMILES: CC1(C)C2CC[C@@]1(CS(=O)(=O)O)C(=O)C2.CC1(C)C2CC[C@@]1(CS(=O)(=O)O)C(=O)C2.CCN(CCO)CCCC(C)Nc1ccnc2cc(Cl)ccc12 (centres unmarked) [compound 6]
- Water Solubility [10]: 2020 mg/mL
- Log P [6]: −1.16

SMILES: CCN(CCO)CCC[C@H](C)Nc1ccnc2cc(Cl)ccc12 [compound 6]
- CC50 [11]: 73.2 µM
- EC90 [9]: > 25 µM

SMILES: CCN(CCO)CCCC(C)Nc1ccnc2cc(Cl)ccc12.Cc1ccc(S(=O)(=O)O)cc1.Cc1ccc(S(=O)(=O)O)cc1 (centres unmarked) [compound 7, N^4-(7-chloroquinolin-4-yl)-N^1-ethyl-N^1-(2-hydroxyethyl)pentane-1,4-diaminium bis(4-methylbenzenesulfonate)]
- solubility [10]: 1400 mg/mL
- Log P [6]: −1.12
- CC50 [11]: 207 µM
- EC50 [9, 13]: 15 µM
- EC90 [9, 13]: 21.1 µM

SMILES: CCCCCCCCCCCCS(=O)(=O)O.CCCCCCCCCCCCS(=O)(=O)O.CCN(CCO)CCCC(C)Nc1ccnc2cc(Cl)ccc12 (centres unmarked) [compound 8, N^4-(7-chloroquinolin-4-yl)-N^1-ethyl-N^1-(2-hydroxyethyl)pentane-1,4-diaminium bis(dodecane-1-sulfonate)]
- cmc [3]: 4.83 µM
- Water Solubility [10]: <0.5 mg/mL
- Log P [6]: 1.01
- EC50 [9]: 15.8 µM
- EC90 [9]: 23.8 µM

SMILES: CCN(CCO)CCCC(C)Nc1ccnc2cc(Cl)ccc12.O=C(O)[C@@H](O)[C@H](O)[C@@H](O)[C@@H](O)CO.O=C(O)[C@@H](O)[C@H](O)[C@@H](O)[C@@H](O)CO [compound 9, N^4-(7-chloroquinolin-4-yl)-N^1-ethyl-N^1-(2-hydroxyethyl)pentane-1,4-diaminium bis((2S,3R,4S,5S)-2,3,4,5,6-pentahydroxyhexanoate)]
- EC50 ([4]; Vero E6, 48 hpi): 16.9 µM
- EC90 ([4]; Vero E6, 48 hpi): 22.5 µM
- inhibition of production of infectious progeny ([4]; at 16.7 μM, 48 hpi): 56.5%
- Water Solubility [10]: 1230 mg/mL
- Log P [6]: −1.39
- EC50 ([7]; Vero E6, 48 hpi): 16.3 µM
- EC90 ([7]; Vero E6, 48 hpi): 23.1 µM
- inhibition of vRNA transcription [7]: 55.8%
- CC50 [11]: 196 µM
- EC50 [9]: 8.5 µM
- EC90 [9]: > 25 µM
